We go through 1 molecule from patent publication EP2433948A1, “Use of a new class of nucleotide sugar as antibiotic or cytostatic agent” (Max-Planck-Gesellschaft zur Förderung der Wissenschaften …, priority 2010, dated 2012).

The assay deals with E. coli MurA (Escherichia coli, UniProt P0A749). Briefly: MurA activity/inhibition assay (phosphate release coupled to PNPase cleavage of fluorescent 7-methylguanosine). The assay is classed as biochemical. The source says: • (a) MurA performs the first step of UDP-muramic acid biosynthesis. After sequential binding of UNAG and phosphoenolpyruvate, a tetrahedral intermediate is formed that yields enolpyruvyl-UNAG after cleavage of inorganic phosphate. UNAG-3P most likely mimics this tetrahedral intermediate and thereby inhibits MurA catalysis by a competitive binding mechanism. (b) Determination of the Ki of UNAG-3P for MurA. Enolpyruvyl-UNAG formation catalyzed by MurA from E. coli in presence of PEP and UNAG-3P and varying UNAG concentrations under steady state conditions. MurA enzyme kinetics were followed by coupling the reaction to phosphate dependent cleavage of fluorescent 7-methylguanosine by nucleoside phosphorylase resulting in a strong decrease of the fluorescence at 400 nm (λexc = 300 nm). The UNAG-3P concentrations for each saturation curve were 0 µM (●), 15 µM (□) and 30 µM (Δ). A Lineweaver-Burk plot is shown as inset.
The enolpyruvyl activity of E. coli MurA was monitored by coupling phosphate release to cleavage of fluorescent 7-methylguanosine (Sigma) by bacterial purine-nucleoside phosphorylase (PNPase) (Sigma). […] The reactions were monitored by the decrease in fluorescence at 400 nm with excitation set to 300 nm in a FluoroMax-3 spectrofluorometer (HORIBA Jobin Yvon) with excitation and emission bandwidths of 5 nm. […]

E. coli MurA, sequence (P0A749 whole entry): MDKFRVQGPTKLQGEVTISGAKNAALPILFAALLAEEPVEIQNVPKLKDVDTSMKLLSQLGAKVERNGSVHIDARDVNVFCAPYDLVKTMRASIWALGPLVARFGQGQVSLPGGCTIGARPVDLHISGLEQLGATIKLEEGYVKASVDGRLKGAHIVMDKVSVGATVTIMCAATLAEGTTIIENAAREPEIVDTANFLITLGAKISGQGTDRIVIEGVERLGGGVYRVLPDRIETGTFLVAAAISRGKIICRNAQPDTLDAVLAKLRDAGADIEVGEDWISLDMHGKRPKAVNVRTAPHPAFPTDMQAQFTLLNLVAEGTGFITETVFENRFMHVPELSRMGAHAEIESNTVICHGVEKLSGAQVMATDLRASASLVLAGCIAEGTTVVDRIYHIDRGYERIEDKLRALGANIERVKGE

`CC(=O)N[C@H]1[C@@H](OP(=O)(O)OP(=O)(O)OC[C@H]2O[C@@H](n3ccc(=O)[nH]c3=O)[C@H](O)[C@@H]2O)O[C@H](CO)[C@@H](O)[C@@H]1OP(=O)(O)O` [UNAG-3P, Uridinediphosphate-2-N-acetyl-3-phosphate-glucosamine]: the Ki worked out at 7 µM.
